Results from article doi:10.1101/2025.04.10.648262, “Time-resolved phenotyping at subcellular resolution reveals shared principles and key trade-offs across antimicrobial peptide activities” (bioRxiv, 2026).
Where two headings read alike, the source gives them in different places. Bridge positions count the residues as written; N and C are the ends. Square brackets hold non-standard residues; d marks the D form. Peptide text beside a SMILES is read from it. Nspe = C[C@H](NCC(=O)O)c1ccccc1; Nlys = NCCCCNCC(=O)O

Legend:
E. coli (MG1655) = type: cell-based, Escherichia coli
Procedure: For all experiments and E. coli strains, cells were grown in a medium (M9gluCAAT) with M9 salts (33.7 mM Na2HPO4, 22mM KH2PO4, 8.55 mM NaCl, 9.35 mM NH4Cl), 0.2% (w/v) glucose, 0.4% (w/v) casamino acids, 1 mM MgSO4, 0.3 mM CaCl2, 1 μg/mL thiamine, and trace elements (13.4 mM ethylene-diamine-tetra-acetic-acid (EDTA), 3.1 mM FeCl3-6H2O, 0.62 mM ZnCl2, 76 μM CuCl2-2H2O, 42 μM CoCl2-2H2O, 162 μM H3BO3, 8.1 μM MnCl2-4H2O). Prior to every experiment, cells were first inoculated into M9gluCAAT and grown to stationary phase at 37°C. For all assays except the biofilm experiments, the culture was diluted to 1/10,000 or more in fresh medium and grown at 37°C until it reached an optical density at 600 nm (OD) of 0.2–0.4. For the biofilm experiments, cells were grown in M9gluCAAT supplemented with 100 μg/mL ampicillin to maintain the GFP-expressing plasmid. The overnight stationary-phase cultures were then diluted into the same medium to an OD of 0.015. See below for details on biofilm growth.
Except for the biofilm experiments, the strains used in this study were derived from MG1655 (ATCC 47076), which was used to estimate the minimum inhibitory concentration (MIC) for all the studied peptides (or peptoids) using a microplate reader (Figure 1A). To detect the timing of outer and inner membrane permeabilization to proteins, strain CJW7845 was constructed to carry two freely diffusing fluorescent proteins: mScarlet-I in the periplasm and mTagBFP2 in the cytoplasm. Construction of CJW7845 was done by transforming pBAD-mTagBFP2 plasmid (Addgene #34632, a gift from Vladislav Verkhusha; ([Subach et al., 2011])) into an E. coli strain expressing a periplasmic mScarlet-I reporter ([Cañas-Duarte 2021]), as previously described ([Chung et al., 1989]). Transformants were restreaked on fresh selection plates and confirmed via microscopy.
(§1) To determine the minimal inhibitory concentration (MIC) of the selected AMPs against either MG1655 or ATCC 25922 E. coli strains, exponentially growing cells were diluted in fresh medium to an OD = 10^−6 (~500 cells/mL) and mixed 50:50 with titrated AMP concentrations (which were chosen to be over a range that included the MIC) in a 96-well plate (flat bottom with low evaporation lid, 3595, Corning, Arizona, USA). A final OD of 5 × 10^−7 corresponds to ~250 cells/mL. OD curves were sampled every 5 min for a total of 48 h using a microplate reader (BioTek Synergy 2, Agilent Technologies Inc., California, USA). Raw data were exported as a text file and analysed using a custom-written Python script (microplate_reader_analysis.py). To measure maximum growth rates, the log(OD) was fitted using a linear regression over a 12-point moving window (60 min), which provides the instantaneous growth rate (log(OD)/h), from which the global maximum was computed. The MIC was defined as the minimum AMP concentration for which the maximum growth rate was < 0.2 log(OD)/h within the first 20 h of incubation. Each MIC experiment was performed independently at least three times (with at least two technical replicates each), and the mode across all replicates was taken as the final MIC; in the rare cases of a tie, an additional replicate was performed, which was sufficient to resolve it.

E. coli ATCC 25922 = type: cell-based, Escherichia coli; conditions: E. coli ATCC 25922, M9gluCAAT, 37°C, 20 h; mode across four biological replicates
Procedure: Strain ATCC 25922GFP (ATCC, Virginia, USA), which carries a GFP-expressing plasmid, was selected for biofilm experiments. The strain’s ability to form biofilms was first verified at 37°C using Congo Red staining on agar plate containing M9gluCAAT. Congo Red dye binds curli, a major component of the biofilm extracellular matrix. Strain ATCC 25922 (lacking the GFP-expressing plasmid) was used for MIC determination (to avoid interference from the presence of ampicillin required to maintain the plasmid) following the standard growth protocol described above.
as §1

For `CC[C@@H](C)[C@@H](NC(=O)[C@@H](C)NC(=O)[C@@H](CCCNC(=N)N)NC(=O)[C@@H](Cc1c[nH]c2ccccc12)NC(=O)[C@@H](CCC(N)=O)NC(=O)[C@H](N)C(C)C)C(=O)N[C@H](CCCNC(=N)N)C(=O)N[C@@H](C(=O)N[C@H](CCCNC(=N)N)C(=O)N[C@@H](C(=O)N[C@@H](C(=O)N[C@H](CCCNC(=N)N)C(N)=O)[C@H](C)CC)C(C)C)C(C)C` [DJK-5] (H-[dV][dQ][dW][dR][dA][dI][dR][dV][dR][dV][dI][dR]-NH2; N-terminus and C-terminus assumed), the “MIC (mode MIC)” value (E. coli (MG1655); MG1655, 20 h) was 2.5 µM.

`CC[C@H](C)[C@@H]1NC(=O)CNC(=O)[C@H](CCCNC(=N)N)NC(=O)[C@H](Cc2ccc(O)cc2)NC(=O)[C@@H]2CSSC[C@H](NC1=O)C(=O)N[C@@H](Cc1ccc(O)cc1)C(=O)N[C@@H](CCCNC(=N)N)C(=O)N[C@@H](CCCNC(=N)N)C(=O)N[C@H](C(=O)N[C@@H](CCCNC(=N)N)C(N)=O)CSSC[C@H](NC(=O)[C@H](Cc1c[nH]c3ccccc13)NC(=O)[C@@H](N)CCCCN)C(=O)N[C@@H](Cc1ccccc1)C(=O)N[C@@H](CCCNC(=N)N)C(=O)N[C@@H](C(C)C)C(=O)N2` [Tac1, tachyplesin-1] (H-KWCFRVCYRGICYRRCR-NH2; disulfide 3-16, 7-12 (inferred); N-terminus assumed) was tested, and the “MIC (mode MIC)” value (E. coli ATCC 25922) was 1.2 µM and the “MIC (mode MIC)” value (E. coli (MG1655); MG1655, 20 h) was 0.6 µM.

For `C[C@@H](c1ccccc1)N(CC(N)=O)C(=O)CN(C(=O)CN(CCCCN)C(=O)CN(C(=O)CN(C(=O)CN(CCCCN)C(=O)CN(C(=O)CN(C(=O)CN(CCCCN)C(=O)CN(C(=O)CN(C(=O)CNCCCCN)[C@@H](C)c1ccccc1)[C@@H](C)c1ccccc1)[C@@H](C)c1ccccc1)[C@@H](C)c1ccccc1)[C@@H](C)c1ccccc1)[C@@H](C)c1ccccc1)[C@@H](C)c1ccccc1` [TM1] (H-[Nlys][Nspe][Nspe][Nlys][Nspe][Nspe][Nlys][Nspe][Nspe][Nlys][Nspe][Nspe]-NH2), the “MIC (mode MIC)” value (E. coli (MG1655); E. coli MG1655, M9gluCAAT, 37°C, 20 h, inoculum ~250 cells/mL, max growth rate < 0.2 log(OD)/h, mode across three biological replicates with two technical replicates each) was 2.5 µM.
